From PubChem BioAssay AID248 (DTP/NCI, 2004)
“And” between values parts separate entries of the source, which are not always exact repeats. Identical values can stand only once. Inconclusive results and toxic doses are left out. Rule as the data show it: active = T/C of 150% or more; inactive = T/C below 125%.

Test system: L1210 leukemia ip in BDF1 mice, survival T/C
Assay: NCI In Vivo Anticancer Drug Screen. Data for tumor model L1210 Leukemia (intraperitoneal) in B6D2F1 (BDF1) mice
Conditions: endpoint: mean survival time, higher = longer survival
Summary of the method: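 Tumor cells were implanted, animals were treated, and survival was followed. The result divides the treated measurement by the vehicle-control measurement.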

[1] = dose: 100.0 mg/kg/injection, schedule: Q04DX003 (ip), vehicle: saline
[2] = dose: 100.0 mg/kg/injection, schedule: Q01DX001 (ip), vehicle: carboxymethylcellulose (CMC)
[3] = dose: 100.0 mg/kg/injection, schedule: Q04DX002 (ip), vehicle: carboxymethylcellulose (CMC)
[4] = dose: 200.0 mg/kg/injection, schedule: Q01DX001 (ip), vehicle: carboxymethylcellulose (CMC)
[5] = dose: 200.0 mg/kg/injection, schedule: Q04DX002 (ip), vehicle: carboxymethylcellulose (CMC)
[6] = dose: 400.0 mg/kg/injection, schedule: Q01DX001 (ip), vehicle: carboxymethylcellulose (CMC)
[7] = dose: 400.0 mg/kg/injection, schedule: Q04DX002 (ip), vehicle: carboxymethylcellulose (CMC)
[8] = dose: 200.0 mg/kg/injection, schedule: Q01DX009 (ip), vehicle: Klucel (hydroxypropylcellulose) (HPC)
[9] = dose: 100.0 mg/kg/injection, schedule: Q01DX009 (ip), vehicle: Klucel (hydroxypropylcellulose) (HPC)
[10] = dose: 100.0 mg/kg/injection, schedule: Q04DX003 (ip), vehicle: Klucel (hydroxypropylcellulose) (HPC)
[11] = dose: 200.0 mg/kg/injection, schedule: Q04DX003 (ip), vehicle: Klucel (hydroxypropylcellulose) (HPC)
[12] = dose: 400.0 mg/kg/injection, schedule: Q04DX003 (ip), vehicle: Klucel (hydroxypropylcellulose) (HPC)
[13] = dose: 50.0 mg/kg/injection, schedule: Q04DX003 (ip), vehicle: saline
[14] = dose: 100.0 mg/kg/injection, schedule: Q04DX003 (ip), vehicle: other
[15] = dose: 200.0 mg/kg/injection, schedule: Q04DX003 (ip), vehicle: other
[16] = dose: 400.0 mg/kg/injection, schedule: Q04DX003 (ip), vehicle: other
[17] = dose: 100.0 mg/kg/injection, schedule: Q01DX001 (ip), vehicle: saline
[18] = dose: 200.0 mg/kg/injection, schedule: Q01DX001 (ip), vehicle: saline

Measured: T/C

CCCN=C(N)C(N)=NCCC
inactive: dose: 100.0 mg/kg/injection, schedule: Q01DX009 (ip), vehicle: saline 91 % of control | [1] 98 % of control | dose: 200.0 mg/kg/injection, schedule: Q01DX009 (ip), vehicle: saline 92 % of control | dose: 200.0 mg/kg/injection, schedule: Q04DX003 (ip), vehicle: saline 98 % of control | dose: 400.0 mg/kg/injection, schedule: Q04DX003 (ip), vehicle: saline 91 % of control

Cc1ccc(NC(=S)N(CCC#N)Cc2ccccc2)cc1C
inactive: [2] 94 % of control | dose: 100.0 mg/kg/injection, schedule: Q01DX009 (ip), vehicle: carboxymethylcellulose (CMC) 93 % of control and 107 % of control | [3] 98 % of control | dose: 100.0 mg/kg/injection, schedule: Q04DX003 (ip), vehicle: carboxymethylcellulose (CMC) 90 % of control | [4] 100 % of control | dose: 200.0 mg/kg/injection, schedule: Q01DX009 (ip), vehicle: carboxymethylcellulose (CMC) 89 % of control and 91 % of control | [5] 101 % of control and 88 % of control | dose: 200.0 mg/kg/injection, schedule: Q04DX003 (ip), vehicle: carboxymethylcellulose (CMC) 95 % of control | [6] 90 % of control | dose: 400.0 mg/kg/injection, schedule: Q01DX009 (ip), vehicle: carboxymethylcellulose (CMC) 86 % of control | [7] 95 % of control and 88 % of control | dose: 400.0 mg/kg/injection, schedule: Q04DX003 (ip), vehicle: carboxymethylcellulose (CMC) 90 % of control

COc1ccc(OC)c(/C=C/c2ccc(NC(=O)Nc3ccccc3Cl)cc2)c1
inactive: dose: 12.5 mg/kg/injection, schedule: Q01DX009 (ip), vehicle: Klucel (hydroxypropylcellulose) (HPC) 93 % of control | dose: 25.0 mg/kg/injection, schedule: Q01DX009 (ip), vehicle: Klucel (hydroxypropylcellulose) (HPC) 89 % of control | dose: 50.0 mg/kg/injection, schedule: Q01DX009 (ip), vehicle: Klucel (hydroxypropylcellulose) (HPC) 91 % of control | dose: 100.0 mg/kg/injection, schedule: Q04DX002 (ip), vehicle: Klucel (hydroxypropylcellulose) (HPC) 88 % of control | [8] 93 % of control and 86 % of control | dose: 200.0 mg/kg/injection, schedule: Q04DX002 (ip), vehicle: Klucel (hydroxypropylcellulose) (HPC) 88 % of control | dose: 300.0 mg/kg/injection, schedule: Q01DX009 (ip), vehicle: Klucel (hydroxypropylcellulose) (HPC) 106 % of control and 89 % of control

Cc1cccc(NS(=O)(=O)c2ccc(Cl)cc2)c1C
inactive: [9] 109 % of control | [10] 96 % of control | [8] 105 % of control | [11] 94 % of control | dose: 400.0 mg/kg/injection, schedule: Q01DX009 (ip), vehicle: Klucel (hydroxypropylcellulose) (HPC) 94 % of control | [12] 103 % of control

CCN(CC)CCCC(C)Nc1cc(N)nc2nccnc12 (stereo unspecified)
inactive: dose: 25.0 mg/kg/injection, schedule: Q04DX003 (ip), vehicle: saline 102 % of control | [13] 111 % of control | [1] 107 % of control

COc1cc2cc3c4cc(OC)c(OC)cc4cc[n+]3c(/C=C/c3cccc([N+](=O)[O-])c3)c2cc1OC
inactive: [3] 113 % of control | dose: 100.0 mg/kg/injection, schedule: Q04DX002 (ip), vehicle: other 97 % of control and 105 % of control and 109 % of control | [14] 107 % of control | [5] 109 % of control | dose: 200.0 mg/kg/injection, schedule: Q04DX002 (ip), vehicle: other 94 % of control and 104 % of control and 123 % of control | [15] 119 % of control | [7] 109 % of control | dose: 400.0 mg/kg/injection, schedule: Q04DX002 (ip), vehicle: other 108 % of control and 119 % of control | [16] 105 % of control | dose: 800.0 mg/kg/injection, schedule: Q04DX002 (ip), vehicle: other 112 % of control

Cc1ccc(C)c(NC(=O)Oc2ccc(Cl)cc2C)c1
inactive: dose: 100.0 mg/kg/injection, schedule: Q01DX001 (ip), vehicle: saline with Tween-80 100 % of control and 91 % of control | dose: 100.0 mg/kg/injection, schedule: Q01DX009 (ip), vehicle: saline with Tween-80 86 % of control | dose: 100.0 mg/kg/injection, schedule: Q04DX002 (ip), vehicle: saline with Tween-80 92 % of control | dose: 200.0 mg/kg/injection, schedule: Q01DX001 (ip), vehicle: saline with Tween-80 98 % of control | dose: 200.0 mg/kg/injection, schedule: Q01DX009 (ip), vehicle: saline with Tween-80 100 % of control and 89 % of control | dose: 200.0 mg/kg/injection, schedule: Q04DX002 (ip), vehicle: saline with Tween-80 92 % of control | dose: 400.0 mg/kg/injection, schedule: Q01DX001 (ip), vehicle: saline with Tween-80 94 % of control and 100 % of control | dose: 400.0 mg/kg/injection, schedule: Q01DX009 (ip), vehicle: saline with Tween-80 99 % of control and 100 % of control | dose: 400.0 mg/kg/injection, schedule: Q04DX002 (ip), vehicle: saline with Tween-80 89 % of control

Cc1ccc(/C(=N\N=C(N)N)C2CC2)cc1C
inactive: dose: 15.0 mg/kg/injection, schedule: Q01DX Z (ip), vehicle: methylcellulose (MC) 103 % of control | dose: 30.0 mg/kg/injection, schedule: Q01DX Z (ip), vehicle: methylcellulose (MC) 97 % of control | dose: 30.0 mg/kg/injection, schedule: Q01DX Z (oral), vehicle: methylcellulose (MC) 95 % of control | dose: 60.0 mg/kg/injection, schedule: Q01DX Z (ip), vehicle: methylcellulose (MC) 93 % of control | dose: 60.0 mg/kg/injection, schedule: Q01DX Z (oral), vehicle: methylcellulose (MC) 88 % of control

Cc1nnc(NS(=O)(=O)c2ccc(N=Nc3c(N)[nH]c(=O)[nH]c3=O)cc2)s1
inactive: [17] 96 % of control | [18] 111 % of control | dose: 400.0 mg/kg/injection, schedule: Q01DX001 (ip), vehicle: saline 98 % of control

CNC1(c2ccccc2)C(=O)CC2CCC1C2 (stereo unspecified)
inactive: [13] 99 % of control | [17] 105 % of control | [1] 100 % of control | [18] 107 % of control

CC[N+]1(C2CCCCC2)CCCCC1
inactive: dose: 5.0 mg/kg/injection, schedule: Q01DX001 (ip), vehicle: saline 101 % of control | dose: 10.0 mg/kg/injection, schedule: Q01DX001 (ip), vehicle: saline 103 % of control | dose: 20.0 mg/kg/injection, schedule: Q01DX001 (ip), vehicle: saline 100 % of control | dose: 40.0 mg/kg/injection, schedule: Q01DX001 (ip), vehicle: saline 91 % of control | dose: 75.0 mg/kg/injection, schedule: Q01DX001 (ip), vehicle: saline 96 % of control

CCN1C=C/C(=C/c2cc3scc(-c4ccccc4)[n+]3c3ccccc23)c2ccccc21
inactive: dose: 0.01 mg/kg/injection, schedule: Q04DX003 (ip), vehicle: saline with Tween-80 108 % of control | dose: 0.02 mg/kg/injection, schedule: Q04DX003 (ip), vehicle: saline with Tween-80 98 % of control | dose: 0.04 mg/kg/injection, schedule: Q04DX003 (ip), vehicle: saline with Tween-80 93 % of control

c1ccc(C[Si](c2ccccc2)c2ccccc2)cc1
inactive: [10] 107 % of control | [11] 100 % of control | [12] 98 % of control

COc1ccc2c(c1)CCC1=C2CCC2C1C(=O)CCC21OCCCO1 (stereo unspecified)
inactive: [10] 100 % of control | [11] 96 % of control | [12] 96 % of control

C/C(=C\C(=O)O)Cc1ccccc1 (tested in a mixture with another compound)
inactive: dose: 50.0 mg/kg/injection, schedule: Q04DX003 (ip), vehicle: other 106 % of control | [14] 115 % of control | [15] 114 % of control | [16] 103 % of control

C/C(=N\NC(N)=O)C1=C(O)C(C(C)C)NC1=O (stereo unspecified)
inactive: dose: 50.0 mg/kg/injection, schedule: Q01DX001 (ip), vehicle: carboxymethylcellulose (CMC) 101 % of control | [2] 106 % of control | [4] 103 % of control | [6] 109 % of control

CC1CCN(c2ccc([N+](=O)[O-])cc2[N+](=O)[O-])CC1
inactive: [9] 99 % of control | [10] 104 % of control | [8] 99 % of control | [11] 98 % of control | [12] 103 % of control
